From patent US20070049593A1 (priority 2004, published 2007) come the findings set out here.

Counter-ions that a name gives are not always drawn.

In one assay the target is T1, HCV polymerase (Hepatitis C virus genotype 1b, UniProt P26663).
T1 construct: a region encoding NS5B (J Virol 1991 March, 65(3), 1105-13, 544 amino acids after deletion of 47 amino acids on the C-terminal); 6xHis (C); made in house; host or cells: Escherichia coli
T1 sequence (P26663 2420-2963): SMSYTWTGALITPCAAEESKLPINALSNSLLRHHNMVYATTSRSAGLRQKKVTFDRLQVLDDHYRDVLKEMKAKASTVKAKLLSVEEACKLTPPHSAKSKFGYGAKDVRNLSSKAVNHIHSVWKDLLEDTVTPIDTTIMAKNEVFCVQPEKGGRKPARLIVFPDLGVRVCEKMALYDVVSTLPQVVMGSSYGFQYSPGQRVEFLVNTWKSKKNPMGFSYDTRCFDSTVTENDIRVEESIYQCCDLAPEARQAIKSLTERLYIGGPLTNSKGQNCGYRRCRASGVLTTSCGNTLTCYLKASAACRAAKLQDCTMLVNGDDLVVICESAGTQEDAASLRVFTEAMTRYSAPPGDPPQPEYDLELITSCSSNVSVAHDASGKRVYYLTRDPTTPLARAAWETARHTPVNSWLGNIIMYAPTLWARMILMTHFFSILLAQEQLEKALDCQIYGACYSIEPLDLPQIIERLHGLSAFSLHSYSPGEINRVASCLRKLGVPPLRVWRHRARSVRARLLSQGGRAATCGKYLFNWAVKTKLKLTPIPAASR
Put plainly: biochemical. More on the design: species or system HCV BK strain.
Conditions: not given
The method in brief: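 Recombinant HCV BK-strain NS5B (C-terminal 47 aa deleted, His6-tagged, E. coli), 0.5 μg/ml, run with 5 μg/ml in vitro-transcribed RNA template (polyU/3′X), ATP/GTP/CTP 50 μM, UTP 2 μM plus [3H]UTP, pH 7.5, 25° C, 90 min. TCA-precipitated RNA counted by scintillation; IC50 from activity with vs without compound.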
For `CC(C)N1CCCC(CCN2CCn3c(c(C4CCCC4)c4ccc(C(=O)O)cc43)-c3ccc(Cl)cc32)C1` (stereo not shown) [Example 1-414, 3-chloro-13-cyclopentyl-5-[2-(1-isopropylpiperidin-3-yl)ethyl]-6,7-dihydro-5H-benzo[5,6][1,4]diazepino[7,1-a]indole-10-carboxylic acid monohydrochloride], the IC50 is below 100 nM.

Molecule `O=C(O)c1ccc2c(C3CCCCC3)c3n(c2c1)CCN(CCCCN1CCCCC1)c1cc(Cl)ccc1-3` [Example 1-415, 3-chloro-13-cyclohexyl-5-[4-(piperidin-1-yl)butyl]-6,7-dihydro-5H-benzo[5,6][1,4]diazepino[7,1-a]indole-10-carboxylic acid] came in with an IC50 below 100 nM.

As for `COC[C@H]1CCCN(CCN2CCn3c(c(C4CCCCC4)c4ccc(C(=O)O)cc43)-c3ccc(C)cc32)C1` [Example 1-417, 13-cyclohexyl-5-[2-((S)-3-methoxymethylpiperidin-1-yl)ethyl]-3-methyl-6,7-dihydro-5H-benzo[5,6][1,4]diazepino[7,1-a]indole-10-carboxylic acid dihydrochloride], the IC50 was below 100 nM.

In turn, `CS(=O)(=O)c1cccc(COc2ccc3c(c2)N(CCN2CCCCC2)CCn2c-3c(C3CCCCC3)c3ccc(C(=O)O)cc32)c1` [Example 1-418, 13-cyclohexyl-3-(3-methanesulfonylbenzyloxy)-5-[2-(piperidin-1-yl)ethyl]-6,7-dihydro-5H-benzo[5,6][1,4]diazepino[7,1-a]indole-10-carboxylic acid dihydrochloride] displayed an IC50 below 100 nM.

With `CC[C@@H]1CCCN(CCN2CCn3c(c(C4CCCCC4)c4ccc(C(=O)O)cc43)-c3ccc(C)cc32)C1` [Example 1-420, 13-cyclohexyl-5-[2-((R)-3-ethylpiperidin-1-yl)ethyl]-3-methyl-6,7-dihydro-5H-benzo[5,6][1,4]diazepino[7,1-a]indole-10-carboxylic acid dihydrochloride], the IC50 was below 100 nM.

As to `CC[C@H]1CCCN(CCN2CCn3c(c(C4CCCCC4)c4ccc(C(=O)O)cc43)-c3ccc(C)cc32)C1` [Example 1-422, 13-cyclohexyl-5-[2-((S)-3-ethylpiperidin-1-yl)ethyl]-3-methyl-6,7-dihydro-5H-benzo[5,6][1,4]diazepino[7,1-a]indole-10-carboxylic acid dihydrochloride], the IC50 is below 100 nM.

Molecule `CCN(CC)CCCCN1CCn2c(c(C3CCCCC3)c3ccc(C(=O)O)cc32)-c2ccc(Cl)cc21` [Example 1-424, 3-chloro-13-cyclohexyl-5-(4-diethylaminobutyl)-6,7-dihydro-5H-benzo[5,6][1,4]diazepino[7,1-a]indole-10-carboxylic acid] yielded an IC50 below 100 nM.

Regarding `Cc1ccc2c(c1)N(CCCCN1CCCCC1)CCn1c-2c(C2CCCCC2)c2ccc(C(=O)O)cc21` [Example 1-425, 13-cyclohexyl-3-methyl-5-[4-(piperidin-1-yl)butyl]-6,7-dihydro-5H-benzo[5,6][1,4]diazepino[7,1-a]indole-10-carboxylic acid dihydrochloride], the 50% inhibitory concentration (IC50) is below 100 nM.

As to `CN1CCCC1CCN1CCn2c(c(C3CCCCC3)c3ccc(C(=O)O)cc32)-c2ccc(Cl)cc21` (stereo not shown) [Example 1-426, 3-chloro-13-cyclohexyl-5-[2-(1-methylpyrrolidin-2-yl)ethyl]-6,7-dihydro-5H-benzo[5,6][1,4]diazepino[7,1-a]indole-10-carboxylic acid dihydrochloride], the IC50 is below 100 nM.

In turn, `CCOc1ccc2c(c1)N(CCN1CCC[C@@H](CCOC)C1)CCn1c-2c(C2CCCCC2)c2ccc(C(=O)O)cc21` [Example 1-427, 13-cyclohexyl-3-ethoxy-5-{2-[(S)-3-(2-methoxyethyl)piperidin-1-yl]ethyl}-6,7-dihydro-5H-benzo[5,6][1,4]diazepino[7,1-a]indole-10-carboxylic acid dihydrochloride] showed an IC50 below 100 nM.

For the molecule `CCCN(CC)CCCN1CCn2c(c(C3CCCCC3)c3ccc(C(=O)O)cc32)-c2ccc(Cl)cc21` [Example 1-428, 3-chloro-13-cyclohexyl-5-[3-(N-ethyl-N-propylamino)propyl]-6,7-dihydro-5H-benzo[5,6][1,4]diazepino[7,1-a]indole-10-carboxylic acid dihydrochloride], the IC50 was below 100 nM.

`CC(C)N(CCCN1CCn2c(c(C3CCCCC3)c3ccc(C(=O)O)cc32)-c2ccc(Cl)cc21)C(C)C` [Example 1-429, 3-chloro-13-cyclohexyl-5-(3-diisopropylaminopropyl)-6,7-dihydro-5H-benzo[5,6][1,4]diazepino[7,1-a]indole-10-carboxylic acid dihydrochloride]: the IC50 was below 100 nM.

`CCc1ccc2c(c1)N(CCN1CCC[C@@H](CCOC)C1)CCn1c-2c(C2CCCCC2)c2ccc(C(=O)O)cc21` [Example 1-430, 13-cyclohexyl-3-ethyl-5-{2-[(S)-3-(2-methoxyethyl)piperidin-1-yl]ethyl}-6,7-dihydro-5H-benzo[5,6][1,4]diazepino[7,1-a]indole-10-carboxylic acid dihydrochloride] gave an IC50 below 100 nM.

`CCN(CCCN1CCn2c(c(C3CCCCC3)c3ccc(C(=O)O)cc32)-c2ccc(Cl)cc21)CCOC` [Example 1-431, 3-chloro-13-cyclohexyl-5-{3-[N-ethyl-N-(2-methoxyethyl)amino]propyl}-6,7-dihydro-5H-benzo[5,6][1,4]diazepino[7,1-a]indole-10-carboxylic acid dihydrochloride] yielded an IC50 below 100 nM.

On to `CCN(CCCOC)CCCN1CCn2c(c(C3CCCCC3)c3ccc(C(=O)O)cc32)-c2ccc(Cl)cc21` [Example 1-432, 3-chloro-13-cyclohexyl-5-{3-[N-ethyl-N-(3-methoxypropyl)amino]propyl}-6,7-dihydro-5H-benzo[5,6][1,4]diazepino[7,1-a]indole-10-carboxylic acid dihydrochloride], for which the IC50 was below 100 nM.

`CCOCCCN(CC)CCCN1CCn2c(c(C3CCCCC3)c3ccc(C(=O)O)cc32)-c2ccc(Cl)cc21` [Example 1-433, 3-chloro-13-cyclohexyl-5-{3-[N-(3-ethoxypropyl)-N-ethylamino]propyl}-6,7-dihydro-5H-benzo[5,6][1,4]diazepino[7,1-a]indole-10-carboxylic acid dihydrochloride] displayed an IC50 below 100 nM.

In the case of `COCC[C@@H]1CCCN(CCN2CCn3c(c(C4CCCCC4)c4ccc(C(=O)O)cc43)-c3ccc(F)cc32)C1` [Example 1-434, 13-cyclohexyl-3-fluoro-5-{2-[(S)-3-(2-methoxyethyl)piperidin-1-yl]ethyl}-6,7-dihydro-5H-benzo[5,6][1,4]diazepino[7,1-a]indole-10-carboxylic acid dihydrochloride], the half-maximal inhibitory concentration (IC50) was below 100 nM.

The molecule `Cc1ccc2c(c1)N(CCN1CCCC(CO)C1)CCn1c-2c(C2CCCCC2)c2ccc(C(=O)O)cc21` (stereo not shown) [Example 1-435, 13-cyclohexyl-5-[2-(3-hydroxymethylpiperidin-1-yl)ethyl]-3-methyl-6,7-dihydro-5H-benzo[5,6][1,4]diazepino[7,1-a]indole-10-carboxylic acid dihydrochloride] returned an IC50 below 100 nM.

Turning to `CCN(CC)CC(C)(C)CN1CCn2c(c(C3CCCCC3)c3ccc(C(=O)O)cc32)-c2ccc(Cl)cc21` [Example 1-436, 3-chloro-13-cyclohexyl-5-(3-diethylamino-2,2-dimethylpropyl)-6,7-dihydro-5H-benzo[5,6][1,4]diazepino[7,1-a]indole-10-carboxylic acid dihydrochloride], the IC50 is below 100 nM.

Molecule `CN1CCn2c(c(C3CCCCC3)c3ccc(C(=O)O)cc32)-c2ccc(OCCN3CCCCC3)cc21` [Example 1-437, 13-cyclohexyl-5-methyl-3-[2-(piperidin-1-yl)ethoxy]-6,7-dihydro-5H-benzo[5,6][1,4]diazepino[7,1-a]indole-10-carboxylic acid dihydrochloride] returned an IC50 below 100 nM.

As for `CN1CCn2c(c(C3CCCCC3)c3ccc(C(=O)O)cc32)-c2ccc(OCCC3CCNCC3)cc21` [Example 1-438, 13-cyclohexyl-5-methyl-3-[2-(piperidin-4-yl)ethoxy]-6,7-dihydro-5H-benzo[5,6][1,4]diazepino[7,1-a]indole-10-carboxylic acid dihydrochloride], the IC50 is below 100 nM.

Consider `CN1CCC(CCOc2ccc3c(c2)N(C)CCn2c-3c(C3CCCCC3)c3ccc(C(=O)O)cc32)CC1` [Example 1-439, 13-cyclohexyl-5-methyl-3-[2-(1-methylpiperidin-4-yl)ethoxy]-6,7-dihydro-5H-benzo[5,6][1,4]diazepino[7,1-a]indole-10-carboxylic acid dihydrochloride], for which the IC50 was below 100 nM.

Molecule `Cc1ccc2c(c1)N(CCN1CCCC(C)(C)C1)CCn1c-2c(C2CCCCC2)c2ccc(C(=O)O)cc21` [Example 1-440, 13-cyclohexyl-5-[2-(3,3-dimethylpiperidin-1-yl)ethyl]-3-methyl-6,7-dihydro-5H-benzo[5,6][1,4]diazepino[7,1-a]indole-10-carboxylic acid dihydrochloride] gave an IC50 below 100 nM.

Still in this assay, the particulars now being: read-out: HCV polymerase inhibitory activity IC50; 25° C., 90 min; [5,6-3H]UTP incorporation into RNA.
On to `COC[C@@H]1CCCN(CCN2CCn3c(c(C4CCCCC4)c4ccc(C(=O)O)cc43)-c3ccc(C)cc32)C1` [Example 1-416, 13-cyclohexyl-5-[2-((R)-3-methoxymethylpiperidin-1-yl)ethyl]-3-methyl-6,7-dihydro-5H-benzo[5,6][1,4]diazepino[7,1-a]indole-10-carboxylic acid dihydrochloride], for which the IC50 was below 100 nM.

Consider `O=C(O)c1ccc2c(C3CCCCC3)c3n(c2c1)CCN(CCN1CCCCCCC1)c1ccccc1-3` [Example 1-423, 5-[2-(azocan-1-yl)ethyl]-13-cyclohexyl-6,7-dihydro-5H-benzo[5,6][1,4]diazepino[7,1-a]indole-10-carboxylic acid dihydrochloride], for which the IC50 was below 100 nM.

One may read the IC50 as the midpoint of a concentration-inhibition curve.
